# Laboratory results taken from publication PMC13254586, “C-terminal dimerization motifs control asynchronous chain elongation during modular polyketide biosynthesis [drawing 1]” (The Journal of Biological Chemistry, 2026).
# Assays:
# M1-DD = molecular target: T1, M1-DD (Amycolatopsis mediterranei, UniProt O54666); experiment: cryo-EM structure; format: binding; conditions: covalent on CP Ser1538; Ppant occupies KS active site tunnel; elongation mode; 3.22 Å; Fab 1B2 bound
# T1 construct: gene rifA; RIFS module 1 (KS-AT-DH0-KR-CP) with N- and C-terminal docking domains of the erythromycin assembly line, C-terminal His6; holo form, E. coli BAP1; homodimer
# LM-M1-DD = molecular target: T2, LM-M1-DD (Amycolatopsis mediterranei, UniProt O54666); experiment: LC-MS/MS-MRM of hydrolysed diketide, single turnover; format: biochemical; conditions: ATP/Mg2+, racemic MeMal-CoA, pH 7.3, room temperature
# T2 construct: gene rifA; RIFS loading module plus module 1 bimodule (A-CP, KS-AT-DH0-KR-CP) with C-terminal docking domain (DD) of the erythromycin synthase; holo form, E. coli BAP1; Ni-NTA purified; homodimer
# LM-M1-TEII° = molecular target: T3, LM-M1-TEII° (Amycolatopsis mediterranei, UniProt O54666); experiment: as above; format: biochemical; conditions: ATP/Mg2+, racemic MeMal-CoA, NADPH; pH 7.3; room temperature
# T3 construct: gene rifA; holo form, E. coli BAP1; homodimer
# T3 sequence (O54666 1-2180 limits assumed): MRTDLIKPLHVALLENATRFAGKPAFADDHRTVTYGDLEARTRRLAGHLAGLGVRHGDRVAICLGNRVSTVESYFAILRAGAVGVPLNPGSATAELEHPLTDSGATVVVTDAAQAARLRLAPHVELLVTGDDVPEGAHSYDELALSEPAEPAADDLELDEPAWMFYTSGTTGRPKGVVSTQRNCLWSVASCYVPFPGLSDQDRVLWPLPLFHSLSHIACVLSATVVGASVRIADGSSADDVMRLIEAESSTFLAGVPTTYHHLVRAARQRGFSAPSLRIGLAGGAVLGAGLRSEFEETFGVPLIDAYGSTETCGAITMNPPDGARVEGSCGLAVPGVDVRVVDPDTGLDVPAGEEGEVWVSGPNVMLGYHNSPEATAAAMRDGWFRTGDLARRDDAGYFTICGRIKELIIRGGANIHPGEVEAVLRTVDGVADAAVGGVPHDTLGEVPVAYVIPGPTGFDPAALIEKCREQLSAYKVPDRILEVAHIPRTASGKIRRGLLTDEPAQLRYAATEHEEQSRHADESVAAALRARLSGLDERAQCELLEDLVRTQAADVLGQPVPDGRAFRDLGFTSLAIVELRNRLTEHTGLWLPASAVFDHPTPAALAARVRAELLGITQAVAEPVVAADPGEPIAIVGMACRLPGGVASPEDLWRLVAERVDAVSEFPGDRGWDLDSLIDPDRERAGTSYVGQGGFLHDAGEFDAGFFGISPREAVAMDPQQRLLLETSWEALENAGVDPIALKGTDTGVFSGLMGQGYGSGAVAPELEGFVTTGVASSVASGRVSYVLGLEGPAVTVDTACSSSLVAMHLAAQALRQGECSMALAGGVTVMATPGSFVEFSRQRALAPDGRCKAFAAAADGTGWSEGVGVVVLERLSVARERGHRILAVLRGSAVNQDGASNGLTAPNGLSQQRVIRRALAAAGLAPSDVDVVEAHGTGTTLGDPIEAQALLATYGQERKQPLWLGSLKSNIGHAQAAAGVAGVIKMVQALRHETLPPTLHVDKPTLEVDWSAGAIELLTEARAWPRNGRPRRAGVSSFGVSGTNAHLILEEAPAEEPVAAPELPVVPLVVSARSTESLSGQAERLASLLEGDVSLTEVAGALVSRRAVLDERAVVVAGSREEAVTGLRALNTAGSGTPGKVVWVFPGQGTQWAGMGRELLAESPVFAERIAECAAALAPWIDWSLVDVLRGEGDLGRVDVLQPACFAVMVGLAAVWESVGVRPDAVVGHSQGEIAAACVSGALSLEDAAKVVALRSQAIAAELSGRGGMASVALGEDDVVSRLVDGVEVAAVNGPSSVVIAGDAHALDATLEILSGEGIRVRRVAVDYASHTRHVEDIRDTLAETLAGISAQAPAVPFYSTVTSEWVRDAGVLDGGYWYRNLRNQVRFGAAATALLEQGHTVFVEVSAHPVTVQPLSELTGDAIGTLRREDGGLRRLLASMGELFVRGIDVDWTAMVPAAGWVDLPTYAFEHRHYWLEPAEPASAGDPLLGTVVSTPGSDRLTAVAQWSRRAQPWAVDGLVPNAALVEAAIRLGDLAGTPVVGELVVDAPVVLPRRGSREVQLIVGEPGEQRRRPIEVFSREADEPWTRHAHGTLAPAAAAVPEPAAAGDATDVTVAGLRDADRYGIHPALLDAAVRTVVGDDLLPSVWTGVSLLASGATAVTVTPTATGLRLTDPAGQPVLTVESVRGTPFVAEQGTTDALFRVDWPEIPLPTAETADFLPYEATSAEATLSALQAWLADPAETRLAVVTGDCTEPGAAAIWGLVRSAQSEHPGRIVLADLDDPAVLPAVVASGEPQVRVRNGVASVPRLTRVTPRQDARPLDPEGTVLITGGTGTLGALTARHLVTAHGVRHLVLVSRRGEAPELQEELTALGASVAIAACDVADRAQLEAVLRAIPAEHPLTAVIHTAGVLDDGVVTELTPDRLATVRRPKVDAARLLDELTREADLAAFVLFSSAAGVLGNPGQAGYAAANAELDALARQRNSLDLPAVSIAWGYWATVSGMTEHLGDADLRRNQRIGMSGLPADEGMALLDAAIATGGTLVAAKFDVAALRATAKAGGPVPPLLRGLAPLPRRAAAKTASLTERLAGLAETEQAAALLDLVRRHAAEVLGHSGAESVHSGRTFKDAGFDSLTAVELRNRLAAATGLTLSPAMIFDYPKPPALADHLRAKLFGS
# T3 sequence (Q7BUF9 1-259 S94A partner): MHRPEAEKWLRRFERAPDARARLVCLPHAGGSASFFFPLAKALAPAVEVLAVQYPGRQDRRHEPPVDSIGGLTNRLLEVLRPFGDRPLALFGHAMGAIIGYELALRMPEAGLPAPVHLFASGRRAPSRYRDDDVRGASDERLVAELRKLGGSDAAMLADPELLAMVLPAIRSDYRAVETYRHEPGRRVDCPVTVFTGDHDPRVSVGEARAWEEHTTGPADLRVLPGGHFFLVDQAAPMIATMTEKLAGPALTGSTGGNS
# T2 sequence (O54666 1-2179 limits assumed): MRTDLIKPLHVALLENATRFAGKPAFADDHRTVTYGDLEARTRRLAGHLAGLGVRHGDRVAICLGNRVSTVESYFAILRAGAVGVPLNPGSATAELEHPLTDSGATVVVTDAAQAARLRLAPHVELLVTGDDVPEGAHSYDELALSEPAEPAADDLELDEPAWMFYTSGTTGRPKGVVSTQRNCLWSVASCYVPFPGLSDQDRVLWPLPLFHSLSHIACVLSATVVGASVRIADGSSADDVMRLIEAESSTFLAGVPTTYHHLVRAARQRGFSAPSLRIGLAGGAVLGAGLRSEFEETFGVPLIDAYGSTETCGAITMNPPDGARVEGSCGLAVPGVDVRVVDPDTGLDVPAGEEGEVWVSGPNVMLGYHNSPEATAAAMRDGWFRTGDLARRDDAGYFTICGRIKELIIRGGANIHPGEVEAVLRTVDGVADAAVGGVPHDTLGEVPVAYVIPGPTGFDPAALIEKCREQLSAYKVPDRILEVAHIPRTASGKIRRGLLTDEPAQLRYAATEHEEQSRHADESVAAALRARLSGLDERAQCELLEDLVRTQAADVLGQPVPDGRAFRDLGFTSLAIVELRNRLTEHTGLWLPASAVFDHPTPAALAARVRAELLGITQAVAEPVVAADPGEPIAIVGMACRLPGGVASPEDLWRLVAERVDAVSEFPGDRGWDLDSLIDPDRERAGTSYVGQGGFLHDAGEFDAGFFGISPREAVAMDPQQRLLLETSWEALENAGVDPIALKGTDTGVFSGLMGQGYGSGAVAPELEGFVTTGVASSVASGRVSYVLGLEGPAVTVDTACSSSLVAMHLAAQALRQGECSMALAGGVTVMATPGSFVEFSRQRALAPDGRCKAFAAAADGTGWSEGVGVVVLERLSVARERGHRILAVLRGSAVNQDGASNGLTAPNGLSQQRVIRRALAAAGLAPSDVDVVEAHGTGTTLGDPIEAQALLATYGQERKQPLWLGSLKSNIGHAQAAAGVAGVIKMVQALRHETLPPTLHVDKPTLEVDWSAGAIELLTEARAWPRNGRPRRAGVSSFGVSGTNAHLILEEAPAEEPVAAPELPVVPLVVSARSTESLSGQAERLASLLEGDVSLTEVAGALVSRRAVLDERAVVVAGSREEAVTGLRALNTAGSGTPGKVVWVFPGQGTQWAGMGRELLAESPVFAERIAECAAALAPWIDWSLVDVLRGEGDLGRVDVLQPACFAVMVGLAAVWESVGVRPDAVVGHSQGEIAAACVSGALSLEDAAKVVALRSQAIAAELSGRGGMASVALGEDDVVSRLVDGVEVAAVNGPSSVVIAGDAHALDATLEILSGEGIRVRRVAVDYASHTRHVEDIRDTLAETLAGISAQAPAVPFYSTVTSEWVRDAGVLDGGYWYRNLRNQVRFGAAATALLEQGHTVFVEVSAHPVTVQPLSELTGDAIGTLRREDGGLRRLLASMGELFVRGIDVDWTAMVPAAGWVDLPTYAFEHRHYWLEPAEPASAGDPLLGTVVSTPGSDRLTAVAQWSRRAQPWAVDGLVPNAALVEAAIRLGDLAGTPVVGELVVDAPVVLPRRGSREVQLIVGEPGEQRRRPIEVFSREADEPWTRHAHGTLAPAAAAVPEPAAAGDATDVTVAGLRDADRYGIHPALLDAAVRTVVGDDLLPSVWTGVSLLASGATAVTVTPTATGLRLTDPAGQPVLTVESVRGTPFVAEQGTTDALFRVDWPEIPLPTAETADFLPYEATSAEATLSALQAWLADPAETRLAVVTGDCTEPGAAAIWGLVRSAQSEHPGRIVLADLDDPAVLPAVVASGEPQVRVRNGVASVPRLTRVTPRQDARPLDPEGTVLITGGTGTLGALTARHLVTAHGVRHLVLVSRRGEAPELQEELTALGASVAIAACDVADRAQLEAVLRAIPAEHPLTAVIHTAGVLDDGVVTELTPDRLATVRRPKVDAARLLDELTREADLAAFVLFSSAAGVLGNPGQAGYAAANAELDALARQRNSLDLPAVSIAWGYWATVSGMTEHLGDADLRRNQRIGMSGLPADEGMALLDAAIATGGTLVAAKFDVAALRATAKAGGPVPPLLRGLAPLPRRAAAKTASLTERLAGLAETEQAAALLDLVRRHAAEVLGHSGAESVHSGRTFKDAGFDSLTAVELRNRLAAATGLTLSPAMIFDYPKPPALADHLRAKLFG
structure (smiles),measurement,setting,value
CC(C)(COP(=O)(O)O)[C@@H](O)C(=O)NCCC(=O)NCCS [4′-phosphopantetheine],cryo-EM structure,M1-DD,within the KS active site tunnel occupied by the Ppant cofactor
NC(=O)C1=CN([C@@H]2O[C@H](COP(=O)(O)OP(=O)(O)OC[C@H]3O[C@@H](n4cnc5c(N)ncnc54)[C@H](OP(=O)(O)O)[C@@H]3O)[C@@H](O)[C@H]2O)C=CC1 [NADPH],"LC-MS/MS-MRM of hydrolysed diketide, single turnover","LM-M1-DD; 1 mM NADPH present or absent, benzoate",expected time- and NADPH-dependent accumulation of hydrolyzed keto-d2
O=C(O)c1ccccc1 [benzoate],"LC-MS/MS-MRM of hydrolysed diketide, single turnover",LM-M1-DD; NADPH,both LM-M1-DD and LM-M1-TEII° were catalytically active
same,"LC-MS/MS-MRM of hydrolysed diketide, single turnover",LM-M1-TEII°,both LM-M1-DD and LM-M1-TEII° were catalytically active
